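The concentration for 50% growth inhibition is given as GI50. Definition used: TGI = concentration required for complete inhibition of growth.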
How the values were obtained:
Test in all cases: DTP human tumour cell line panel, 384-well format
OVCAR-3 ovarian = tested on: OVCAR-3 ovarian
HS 578T breast = tested on: HS 578T breast
OVCAR-5 ovarian = tested on: OVCAR-5 ovarian
SR leukemia = tested on: SR leukemia
NCI-H322M lung = tested on: NCI-H322M lung
BT-549 breast = tested on: BT-549 breast
TK-10 renal = tested on: TK-10 renal
MALME-3M melanoma = tested on: MALME-3M melanoma
SK-MEL-5 melanoma = tested on: SK-MEL-5 melanoma
MOLT-4 leukemia = tested on: MOLT-4 leukemia
T-47D breast = tested on: T-47D breast
SN12C renal = tested on: SN12C renal
ACHN renal = tested on: ACHN renal
KM12 colon = tested on: KM12 colon
NCI-H226 lung = tested on: NCI-H226 lung
NCI-H522 lung = tested on: NCI-H522 lung
HT29 colon = tested on: HT29 colon
COLO 205 colon = tested on: COLO 205 colon
SNB-75 CNS = tested on: SNB-75 CNS
HL-60(TB) leukemia = tested on: HL-60(TB) leukemia
PC-3 prostate = tested on: PC-3 prostate
UO-31 renal = tested on: UO-31 renal
CCRF-CEM leukemia = tested on: CCRF-CEM leukemia
SF-539 CNS = tested on: SF-539 CNS
A549 NSCLC = tested on: A549 NSCLC
NCI-H460 NSCLC = tested on: NCI-H460 NSCLC
U251 glioblastoma = tested on: U251 glioblastoma
DU-145 prostate = tested on: DU-145 prostate
SK-MEL-28 melanoma = tested on: SK-MEL-28 melanoma
HOP-62 NSCLC = tested on: HOP-62 NSCLC
HCT-15 colon = tested on: HCT-15 colon
MDA-MB-468 breast = tested on: MDA-MB-468 breast
LOX IMVI melanoma = tested on: LOX IMVI melanoma
SNB-19 CNS = tested on: SNB-19 CNS
OVCAR-8 ovarian = tested on: OVCAR-8 ovarian
HCT-116 colon = tested on: HCT-116 colon
MCF7 breast = tested on: MCF7 breast
MDA-MB-231 breast = tested on: MDA-MB-231 breast
SK-OV-3 ovarian = tested on: SK-OV-3 ovarian
A498 renal = tested on: A498 renal
SF-295 CNS = tested on: SF-295 CNS
IGROV1 ovarian = tested on: IGROV1 ovarian
OVCAR-4 ovarian = tested on: OVCAR-4 ovarian
NCI-H23 lung = tested on: NCI-H23 lung
MDA-MB-435 melanoma = tested on: MDA-MB-435 melanoma
786-0 renal = tested on: 786-0 renal
SF-268 CNS = tested on: SF-268 CNS
RXF 393 renal = tested on: RXF 393 renal
CAKI-1 renal = tested on: CAKI-1 renal
SW-620 colon = tested on: SW-620 colon
UACC-257 melanoma = tested on: UACC-257 melanoma
M14 melanoma = tested on: M14 melanoma
RPMI-8226 leukemia = tested on: RPMI-8226 leukemia
EKVX NSCLC = tested on: EKVX NSCLC
UACC-62 melanoma = tested on: UACC-62 melanoma

## COc1ccc2[nH]c3c(c2c1)CCN[C@]31CS[C@@H]2c3c(OC(C)=O)c(C)c4c(c3[C@H](COC1=O)N1[C@@H]2[C@H]2c3c(cc(C)c(OC)c3O)C[C@@H]([C@@H]1O)N2C)OCO4
OVCAR-3 ovarian
  GI50: 189 pM
  TGI: 863 pM
HS 578T breast
  GI50: 130 pM
  TGI: 372 pM
OVCAR-5 ovarian
  GI50: 510 pM
SR leukemia
  GI50: 18.6 pM
  TGI: 57.5 pM
NCI-H322M lung
  GI50: 522 pM
  TGI: 1290 pM
BT-549 breast
  GI50: 50.3 pM
  TGI: 113 pM
TK-10 renal
  GI50: 2640 pM
  TGI: 7170 pM
MALME-3M melanoma
  GI50: 96.7 pM
  TGI: 273 pM
SK-MEL-5 melanoma
  GI50: 87.4 pM
  TGI: 243 pM
MOLT-4 leukemia
  GI50: 14.1 pM
  TGI: 47.4 pM
T-47D breast
  GI50: 410 pM
  TGI: 2560 pM
SN12C renal
  GI50: 107 pM
  TGI: 422 pM
ACHN renal
  GI50: 435 pM
  TGI: 1610 pM
KM12 colon
  GI50: 1440 pM
  TGI: 3960 pM
NCI-H226 lung
  GI50: 109 pM
  TGI: 452 pM
NCI-H522 lung
  GI50: 77.9 pM
  TGI: 261 pM
HT29 colon
  GI50: 123 pM
  TGI: 420 pM
COLO 205 colon
  GI50: 432 pM
  TGI: 1060 pM
SNB-75 CNS
  GI50: 80.9 pM
  TGI: 224 pM
HL-60(TB) leukemia
  GI50: 52.4 pM
  TGI: 98.2 pM
PC-3 prostate
  GI50: 337 pM
  TGI: 2850 pM
UO-31 renal
  GI50: 1680 pM
  TGI: 3100 pM
CCRF-CEM leukemia
  GI50: 19.2 pM
  TGI: 34.8 pM
SF-539 CNS
  GI50: 58.7 pM
  TGI: 111 pM
A549 NSCLC
  GI50: 650 pM
  TGI: 2910 pM
NCI-H460 NSCLC
  GI50: 104 pM
  TGI: 446 pM
U251 glioblastoma
  GI50: 112 pM
  TGI: 554 pM
DU-145 prostate
  GI50: 196 pM
  TGI: 367 pM
SK-MEL-28 melanoma
  GI50: 440 pM
  TGI: 877 pM
HOP-62 NSCLC
  GI50: 54.9 pM
  TGI: 115 pM
HCT-15 colon
  GI50: 414 pM
  TGI: 1060 pM
MDA-MB-468 breast
  GI50: 56.9 pM
  TGI: 119 pM
LOX IMVI melanoma
  GI50: 68.2 pM
  TGI: 180 pM
SNB-19 CNS
  GI50: 124 pM
OVCAR-8 ovarian
  GI50: 126 pM
  TGI: 487 pM
HCT-116 colon
  GI50: 160 pM
MCF7 breast
  GI50: 120 pM
  TGI: 5950 pM
MDA-MB-231 breast
  GI50: 786 pM
  TGI: 2420 pM
SK-OV-3 ovarian
  GI50: 181 pM
  TGI: 9810 pM
A498 renal
  GI50: 1160 pM
  TGI: 2960 pM
SF-295 CNS
  GI50: 57.3 pM
  TGI: 115 pM
IGROV1 ovarian
  GI50: 416 pM
  TGI: 7860 pM
OVCAR-4 ovarian
  GI50: 2590 pM
  TGI: 5770 pM
NCI-H23 lung
  GI50: 75.2 pM
  TGI: 194 pM
MDA-MB-435 melanoma
  GI50: 594 pM
  TGI: 1100 pM
786-0 renal
  GI50: 194 pM
  TGI: 348 pM
SF-268 CNS
  GI50: 70.5 pM
  TGI: 186 pM
RXF 393 renal
  GI50: 49.3 pM
  TGI: 111 pM
CAKI-1 renal
  GI50: 156 pM
  TGI: 6950 pM
SW-620 colon
  GI50: 502 pM
  TGI: 6770 pM
UACC-257 melanoma
  GI50: 428 pM
  TGI: 848 pM
M14 melanoma
  GI50: 82.7 pM
  TGI: 191 pM
RPMI-8226 leukemia
  GI50: 57.9 pM
  TGI: 108 pM
EKVX NSCLC
  GI50: 649 pM
  TGI: 1490 pM
UACC-62 melanoma
  GI50: 87.4 pM
  TGI: 310 pM

Reference: PubChem BioAssay (NCI)
